{"source": "ChEMBL document CHEMBL1140398", "about": "“New dual inhibitors of EGFR and HER2 protein tyrosine kinases” (Bioorg Med Chem Lett, 2005)", "key": {"[1]": {"molecular_target": "Epidermal growth factor receptor (Homo sapiens, UniProt P00533)", "sequence (P00533 whole entry)": "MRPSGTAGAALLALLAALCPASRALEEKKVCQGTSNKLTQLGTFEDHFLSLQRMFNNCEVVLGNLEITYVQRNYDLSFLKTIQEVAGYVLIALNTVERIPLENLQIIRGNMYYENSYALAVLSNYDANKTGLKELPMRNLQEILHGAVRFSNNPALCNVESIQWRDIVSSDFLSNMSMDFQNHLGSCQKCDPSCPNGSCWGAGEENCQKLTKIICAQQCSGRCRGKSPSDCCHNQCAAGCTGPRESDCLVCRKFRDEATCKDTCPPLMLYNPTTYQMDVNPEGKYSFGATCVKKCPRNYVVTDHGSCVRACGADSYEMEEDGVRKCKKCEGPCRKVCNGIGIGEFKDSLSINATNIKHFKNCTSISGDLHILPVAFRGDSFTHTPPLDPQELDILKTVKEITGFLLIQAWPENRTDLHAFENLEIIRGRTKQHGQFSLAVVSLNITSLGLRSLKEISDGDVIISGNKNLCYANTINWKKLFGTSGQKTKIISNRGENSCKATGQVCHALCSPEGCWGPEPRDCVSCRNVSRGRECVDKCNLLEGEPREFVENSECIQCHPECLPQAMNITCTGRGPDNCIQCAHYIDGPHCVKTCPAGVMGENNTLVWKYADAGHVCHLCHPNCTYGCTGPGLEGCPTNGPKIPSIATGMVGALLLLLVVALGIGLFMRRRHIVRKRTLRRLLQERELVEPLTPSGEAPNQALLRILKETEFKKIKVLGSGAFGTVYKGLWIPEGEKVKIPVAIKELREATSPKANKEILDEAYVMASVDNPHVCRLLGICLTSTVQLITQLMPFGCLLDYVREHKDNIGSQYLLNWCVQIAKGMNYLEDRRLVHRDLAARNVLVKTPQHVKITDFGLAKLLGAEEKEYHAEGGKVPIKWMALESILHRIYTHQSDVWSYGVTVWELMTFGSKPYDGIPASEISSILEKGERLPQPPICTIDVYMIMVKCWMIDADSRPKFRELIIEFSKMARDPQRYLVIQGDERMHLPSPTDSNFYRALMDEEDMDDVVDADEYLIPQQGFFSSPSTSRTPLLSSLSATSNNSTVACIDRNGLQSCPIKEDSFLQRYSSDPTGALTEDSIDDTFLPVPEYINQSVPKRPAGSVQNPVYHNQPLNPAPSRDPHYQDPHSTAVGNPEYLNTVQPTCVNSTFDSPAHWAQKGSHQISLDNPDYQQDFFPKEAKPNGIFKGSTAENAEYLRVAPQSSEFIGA", "experiment": "In vitro inhibitory concentration against EGFR cytoplasmic sequence expressed in Sf9 cells"}, "[2]": {"molecular_target": "Receptor tyrosine-protein kinase erbB-2 (Homo sapiens, UniProt P04626)", "sequence (P04626 whole entry)": "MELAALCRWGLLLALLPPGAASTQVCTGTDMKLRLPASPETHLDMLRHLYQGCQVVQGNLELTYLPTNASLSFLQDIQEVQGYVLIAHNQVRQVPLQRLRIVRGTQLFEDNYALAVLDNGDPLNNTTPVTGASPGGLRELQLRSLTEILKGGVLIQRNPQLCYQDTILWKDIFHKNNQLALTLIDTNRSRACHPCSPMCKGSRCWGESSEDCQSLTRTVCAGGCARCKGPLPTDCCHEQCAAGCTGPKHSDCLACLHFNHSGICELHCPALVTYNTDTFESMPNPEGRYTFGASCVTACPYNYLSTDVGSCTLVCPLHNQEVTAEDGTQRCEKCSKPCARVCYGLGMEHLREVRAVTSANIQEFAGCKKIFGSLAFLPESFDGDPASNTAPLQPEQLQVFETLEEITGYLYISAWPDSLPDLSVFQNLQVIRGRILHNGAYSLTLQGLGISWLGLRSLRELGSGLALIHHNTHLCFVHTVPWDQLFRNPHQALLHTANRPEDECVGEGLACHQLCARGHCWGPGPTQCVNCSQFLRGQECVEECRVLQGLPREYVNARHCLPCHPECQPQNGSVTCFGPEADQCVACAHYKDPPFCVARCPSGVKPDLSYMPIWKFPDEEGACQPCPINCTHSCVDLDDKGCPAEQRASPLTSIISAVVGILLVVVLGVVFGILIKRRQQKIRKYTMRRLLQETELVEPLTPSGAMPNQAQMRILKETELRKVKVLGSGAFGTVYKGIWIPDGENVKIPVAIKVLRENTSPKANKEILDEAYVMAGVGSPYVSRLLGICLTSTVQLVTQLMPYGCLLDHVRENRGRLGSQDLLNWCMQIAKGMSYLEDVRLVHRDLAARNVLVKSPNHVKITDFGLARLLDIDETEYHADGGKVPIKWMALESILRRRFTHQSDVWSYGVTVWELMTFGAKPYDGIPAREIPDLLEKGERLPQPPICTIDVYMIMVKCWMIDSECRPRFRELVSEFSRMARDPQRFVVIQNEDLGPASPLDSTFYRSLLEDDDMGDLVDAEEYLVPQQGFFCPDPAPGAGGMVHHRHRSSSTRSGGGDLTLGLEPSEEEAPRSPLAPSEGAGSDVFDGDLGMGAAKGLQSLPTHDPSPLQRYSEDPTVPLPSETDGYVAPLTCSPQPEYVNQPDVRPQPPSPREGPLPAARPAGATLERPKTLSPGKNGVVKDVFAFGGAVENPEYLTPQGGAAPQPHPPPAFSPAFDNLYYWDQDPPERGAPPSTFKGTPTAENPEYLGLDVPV", "experiment": "In vitro inhibitory concentration against HER2 cytoplasmic sequence expressed in Sf9 cells"}, "Focal adhesion kinase 1": {"molecular_target": "Focal adhesion kinase 1 (Homo sapiens, UniProt Q05397)", "sequence (Q05397 whole entry)": "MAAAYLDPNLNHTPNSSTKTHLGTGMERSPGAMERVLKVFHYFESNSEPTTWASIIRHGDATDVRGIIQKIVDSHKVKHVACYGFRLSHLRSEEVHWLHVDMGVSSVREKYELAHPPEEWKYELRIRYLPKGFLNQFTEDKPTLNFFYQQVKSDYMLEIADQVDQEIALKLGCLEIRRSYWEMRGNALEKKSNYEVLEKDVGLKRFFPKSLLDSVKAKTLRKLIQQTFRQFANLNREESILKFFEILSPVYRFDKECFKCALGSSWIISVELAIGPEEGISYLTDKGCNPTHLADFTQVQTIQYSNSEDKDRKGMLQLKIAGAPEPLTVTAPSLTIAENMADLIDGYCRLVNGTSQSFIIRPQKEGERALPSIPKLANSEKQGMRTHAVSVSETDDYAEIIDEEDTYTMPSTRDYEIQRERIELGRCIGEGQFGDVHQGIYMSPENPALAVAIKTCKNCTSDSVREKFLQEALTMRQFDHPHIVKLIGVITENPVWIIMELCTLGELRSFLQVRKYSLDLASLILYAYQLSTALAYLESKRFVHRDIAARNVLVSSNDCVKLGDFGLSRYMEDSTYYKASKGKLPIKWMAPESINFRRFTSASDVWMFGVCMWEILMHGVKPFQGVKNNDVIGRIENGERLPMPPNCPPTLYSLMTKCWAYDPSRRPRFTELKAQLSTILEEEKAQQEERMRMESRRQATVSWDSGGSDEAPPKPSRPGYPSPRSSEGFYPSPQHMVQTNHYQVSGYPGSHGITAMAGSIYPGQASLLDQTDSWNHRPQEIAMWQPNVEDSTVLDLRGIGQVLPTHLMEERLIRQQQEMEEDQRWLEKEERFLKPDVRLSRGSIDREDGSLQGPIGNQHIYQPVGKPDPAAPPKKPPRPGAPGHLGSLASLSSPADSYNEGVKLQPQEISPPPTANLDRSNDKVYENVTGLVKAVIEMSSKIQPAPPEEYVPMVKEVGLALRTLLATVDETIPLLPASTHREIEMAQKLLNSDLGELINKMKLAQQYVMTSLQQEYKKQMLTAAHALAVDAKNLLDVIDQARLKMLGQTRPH", "experiment": "Inhibitory concentration against FAK cytoplasmic sequence; Reported as mean (variability <15%)"}, "[3]": {"molecular_target": "Mitogen-activated protein kinase 14 (Homo sapiens, UniProt Q16539)", "experiment": "Inhibitory concentration against p38 cytoplasmic sequence; Reported as mean (variability <15%)"}, "[4]": {"molecular_target": "Hepatocyte growth factor receptor (Homo sapiens, UniProt P08581)", "sequence (P08581 whole entry)": "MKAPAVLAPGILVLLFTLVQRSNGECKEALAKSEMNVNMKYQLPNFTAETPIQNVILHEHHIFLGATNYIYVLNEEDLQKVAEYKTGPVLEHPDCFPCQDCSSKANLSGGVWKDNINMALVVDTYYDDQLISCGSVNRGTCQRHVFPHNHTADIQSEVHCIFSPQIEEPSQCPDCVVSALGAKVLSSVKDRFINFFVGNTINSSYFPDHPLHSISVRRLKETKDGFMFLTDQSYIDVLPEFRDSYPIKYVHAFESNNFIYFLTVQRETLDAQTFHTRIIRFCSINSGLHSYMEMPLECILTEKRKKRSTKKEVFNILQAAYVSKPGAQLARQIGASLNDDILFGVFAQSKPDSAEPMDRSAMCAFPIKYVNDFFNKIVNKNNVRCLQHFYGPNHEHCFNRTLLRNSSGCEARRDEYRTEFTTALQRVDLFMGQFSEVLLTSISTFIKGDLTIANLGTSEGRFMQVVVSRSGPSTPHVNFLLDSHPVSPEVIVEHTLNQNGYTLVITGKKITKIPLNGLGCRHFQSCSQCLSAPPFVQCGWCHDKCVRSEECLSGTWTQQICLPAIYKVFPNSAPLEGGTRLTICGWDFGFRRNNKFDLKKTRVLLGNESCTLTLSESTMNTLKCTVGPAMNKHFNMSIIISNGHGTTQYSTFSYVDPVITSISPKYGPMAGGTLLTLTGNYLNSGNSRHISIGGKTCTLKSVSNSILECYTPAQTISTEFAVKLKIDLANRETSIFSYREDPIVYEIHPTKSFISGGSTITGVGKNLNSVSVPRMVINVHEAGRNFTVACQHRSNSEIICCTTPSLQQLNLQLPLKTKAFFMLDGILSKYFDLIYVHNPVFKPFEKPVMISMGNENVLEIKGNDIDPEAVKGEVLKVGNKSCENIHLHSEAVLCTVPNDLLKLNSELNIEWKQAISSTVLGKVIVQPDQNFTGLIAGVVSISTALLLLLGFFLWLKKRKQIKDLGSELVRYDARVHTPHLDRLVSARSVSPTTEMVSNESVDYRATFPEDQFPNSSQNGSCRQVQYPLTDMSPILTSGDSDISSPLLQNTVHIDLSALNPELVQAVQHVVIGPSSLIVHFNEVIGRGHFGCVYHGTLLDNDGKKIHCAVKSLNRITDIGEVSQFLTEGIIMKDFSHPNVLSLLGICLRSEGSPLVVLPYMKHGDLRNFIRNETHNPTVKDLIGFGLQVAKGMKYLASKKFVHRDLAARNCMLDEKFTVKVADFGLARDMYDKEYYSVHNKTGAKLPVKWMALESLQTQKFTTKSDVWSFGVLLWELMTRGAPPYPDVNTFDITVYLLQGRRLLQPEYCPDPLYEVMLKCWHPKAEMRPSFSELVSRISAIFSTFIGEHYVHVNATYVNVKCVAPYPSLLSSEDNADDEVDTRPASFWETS", "experiment": "Inhibitory concentration against Met cytoplasmic sequence; Reported as mean (variability <15%)"}, "[5]": {"molecular_target": "MAP kinase-activated protein kinase 2 (Homo sapiens, UniProt P49137)", "experiment": "Inhibitory concentration against MAPKAP kinase 2 cytoplasmic sequence; Reported as mean (variability <15%)"}, "[6]": {"molecular_target": "Insulin-like growth factor 1 receptor (Homo sapiens, UniProt P08069)", "experiment": "Inhibitory concentration against IGF-1R cytoplasmic sequence; Reported as mean (variability <15%)"}}}
{"molecule": "CCc1c(C(=O)OCCCn2ccnc2)cn2ncnc(Nc3ccc4c(cnn4Cc4ccccc4)c3)c12", "values": [{"measurement": "IC50", "setting": "[1]", "result": 170, "unit": "nM"}, {"measurement": "IC50", "setting": "[2]", "result": 240, "unit": "nM"}]}
{"molecule": "CCc1c(C(=O)NCCCn2ccnc2)cn2ncnc(Nc3ccc4c(cnn4Cc4ccccc4)c3)c12", "values": [{"measurement": "IC50", "setting": "[1]", "result": 40, "unit": "nM"}, {"measurement": "IC50", "setting": "[2]", "result": 30, "unit": "nM"}]}
{"molecule": "CCc1c(CC(N)=O)cn2ncnc(Nc3ccc4c(cnn4Cc4ccccc4)c3)c12", "values": [{"measurement": "IC50", "setting": "[1]", "result": 1100, "unit": "nM"}, {"measurement": "IC50", "setting": "[2]", "result": 2400, "unit": "nM"}]}
{"molecule": "CCOC(=O)c1cn2ncnc(Nc3ccc(Oc4ccccc4)cc3)c2c1CC", "values": [{"measurement": "IC50", "setting": "[1]", "result": 610, "unit": "nM"}, {"measurement": "IC50", "setting": "[2]", "result": 820, "unit": "nM"}]}
{"molecule": "CCc1c(C(N)=O)cn2ncnc(Nc3ccc4c(cnn4Cc4ccccc4)c3)c12", "values": [{"measurement": "IC50", "setting": "[1]", "result": 120, "unit": "nM"}, {"measurement": "IC50", "setting": "[2]", "result": 110, "unit": "nM"}]}
{"molecule": "CCOC(=O)c1cn2ncnc(Nc3ccc(F)c(Cl)c3)c2c1CC", "values": [{"measurement": "IC50", "setting": "[1]", "result": 90, "unit": "nM"}, {"measurement": "IC50", "setting": "[2]", "result": 2800, "unit": "nM"}]}
{"molecule": "CCc1c(C(=O)O)cn2ncnc(Nc3ccc4c(cnn4Cc4ccccc4)c3)c12", "values": [{"measurement": "IC50", "setting": "[1]", "result": 20, "unit": "nM"}, {"measurement": "IC50", "setting": "[2]", "result": 40, "unit": "nM"}]}
{"molecule": "CCOCc1cn2ncnc(Nc3ccc4c(cnn4Cc4ccccc4)c3)c2c1CC", "values": [{"measurement": "IC50", "setting": "[1]", "result": 950, "unit": "nM"}, {"measurement": "IC50", "setting": "[2]", "result": 1400, "unit": "nM"}]}
{"molecule": "CCOC(=O)c1cn2ncnc(Nc3ccc4c(cnn4Cc4ccccc4)c3)c2c1CC", "values": [{"measurement": "IC50", "setting": "[1]", "result": 120, "unit": "nM"}, {"measurement": "IC50", "setting": "[2]", "result": 180, "unit": "nM"}]}
{"molecule": "CCOC(=O)c1cn2ncnc(Nc3ccc4c(cnn4Cc4ccccc4)c3)c2c1Cc1ccccc1", "values": [{"measurement": "IC50", "setting": "[1]", "result": "> 25000", "unit": "nM"}, {"measurement": "IC50", "setting": "[2]", "result": "> 25000", "unit": "nM"}]}
{"molecule": "CCc1c(C(=O)NC)cn2ncnc(Nc3ccc4c(cnn4Cc4ccccc4)c3)c12", "values": [{"measurement": "IC50", "setting": "[1]", "result": 70, "unit": "nM"}, {"measurement": "IC50", "setting": "[2]", "result": 130, "unit": "nM"}]}
{"molecule": "CCOC(=O)c1cn2ncnc(Nc3ccc4c(cnn4Cc4ccccc4)c3)c2c1C(C)C", "values": [{"measurement": "IC50", "setting": "[1]", "result": 200, "unit": "nM"}, {"measurement": "IC50", "setting": "[2]", "result": 210, "unit": "nM"}]}
{"molecule": "CCNCc1cn2ncnc(Nc3ccc4c(cnn4Cc4ccccc4)c3)c2c1CC", "values": [{"measurement": "IC50", "setting": "[1]", "result": 7400, "unit": "nM"}, {"measurement": "IC50", "setting": "[2]", "result": 9700, "unit": "nM"}]}
{"molecule": "CCOC(=O)c1cn2ncnc(Nc3cccc(Br)c3)c2c1CC", "values": [{"measurement": "IC50", "setting": "[1]", "result": 60, "unit": "nM"}, {"measurement": "IC50", "setting": "[2]", "result": 3000, "unit": "nM"}]}
{"molecule": "CCOC(=O)c1cn2ncnc(NCc3ccccc3)c2c1CC", "values": [{"measurement": "IC50", "setting": "[1]", "result": 200, "unit": "nM"}, {"measurement": "IC50", "setting": "[2]", "result": 7200, "unit": "nM"}]}
{"molecule": "CCOC(=O)c1cn2ncnc(Nc3ccc4[nH]ncc4c3)c2c1CC", "values": [{"measurement": "IC50", "setting": "[2]", "result": 3300, "unit": "nM"}]}
{"molecule": "CCc1c(C(=O)N(C)C)cn2ncnc(Nc3ccc4c(cnn4Cc4ccccc4)c3)c12", "values": [{"measurement": "IC50", "setting": "[1]", "result": 200, "unit": "nM"}, {"measurement": "IC50", "setting": "[2]", "result": 500, "unit": "nM"}]}
{"molecule": "CCc1c(NC(=O)OCc2ccccc2)cn2ncnc(Nc3ccc4c(cnn4Cc4ccccc4)c3)c12", "values": [{"measurement": "IC50", "setting": "[1]", "result": 210, "unit": "nM"}, {"measurement": "IC50", "setting": "[2]", "result": 170, "unit": "nM"}]}
{"molecule": "CCc1c(CC(=O)O)cn2ncnc(Nc3ccc4c(cnn4Cc4ccccc4)c3)c12", "values": [{"measurement": "IC50", "setting": "[1]", "result": 1600, "unit": "nM"}, {"measurement": "IC50", "setting": "[2]", "result": 680, "unit": "nM"}]}
{"molecule": "CCc1c(CO)cn2ncnc(Nc3ccc4c(cnn4Cc4ccccc4)c3)c12", "values": [{"measurement": "IC50", "setting": "[1]", "result": 490, "unit": "nM"}, {"measurement": "IC50", "setting": "[2]", "result": 730, "unit": "nM"}]}
{"molecule": "CCc1c(NC(=O)OCCn2ccnc2)cn2ncnc(Nc3ccc4c(cnn4Cc4ccccc4)c3)c12", "values": [{"measurement": "IC50", "setting": "Focal adhesion kinase 1", "result": "> 25000", "unit": "nM"}, {"measurement": "IC50", "setting": "[3]", "result": "> 25000", "unit": "nM"}, {"measurement": "IC50", "setting": "[4]", "result": "> 10000", "unit": "nM"}, {"measurement": "IC50", "setting": "[5]", "result": "> 25000", "unit": "nM"}, {"measurement": "IC50", "setting": "[6]", "result": "> 25000", "unit": "nM"}, {"measurement": "IC50", "setting": "[1]", "result": 40, "unit": "nM"}, {"measurement": "IC50", "setting": "[2]", "result": 40, "unit": "nM"}]}
{"molecule": "CCOC(=O)c1cc2c(Nc3ccc4c(cnn4Cc4ccccc4)c3)ncnn2c1", "values": [{"measurement": "IC50", "setting": "[1]", "result": 120, "unit": "nM"}, {"measurement": "IC50", "setting": "[2]", "result": 390, "unit": "nM"}]}
{"molecule": "CCCc1c(C(=O)OCC)cn2ncnc(Nc3ccc4c(cnn4Cc4ccccc4)c3)c12", "values": [{"measurement": "IC50", "setting": "[1]", "result": 950, "unit": "nM"}, {"measurement": "IC50", "setting": "[2]", "result": 1200, "unit": "nM"}]}
